In data set [1] the test system is small intestine, jejunum and ileum. Put plainly: Protection of rats from high-dose 5-FU by oral pre-dosing with RPA: gut wet weights and visual inspection. The data set is classed as in vivo, Hooded Lister (Rowett Strain) rats. On the procedure:
(§1) Thirty five young male Hooded Lister (Rowett Strain) rats (19 days old weighing 30-40g) were housed individually in grid bottom cages. The animals were fed a high quality semi-synthetic diet containing 10% lactalbumin protein (Table 1).
(§2) Diet and water was freely available at all times except on day 19 when the amount of food offered was restricted to 10g/rat. At 19 days, rat weights were 100-104g.
Animals pre-dosed with RPA were given the equivalent of 25, 50 or 100 mg/kg body weight RPA (Table 2) in 0.9% saline by gavage. The animals were pre-dosed for three consecutive days prior to the 5-FU injection.
(§3) Animals not pre-dosed with RPA were administered with 1 ml 0.9% saline by gavage.
(§4) 300mg of 5-fluorouracil was stirred in 14ml of distilled water. 1M NaOH was added slowly until the 5-FU had dissolved. The solution was made up to a final volume of 20 ml. The final pH of the solution was 8.3. A dose of 150 mg/kg body weight was administered to the animal by intraperitoneal injection. Immediately after the injection, the rats were offered 15g of the control diet.
Five groups, each consisting of 5 rats were fed on the standard diet containing lactalbumin (Table 1). One group of rats were fed 8 g per day of standard diet for three days and then injected with 5-FU at 150 mg/kg body weight (Table 2).
The rats were pair fed for the first three days and then fed ab libitum post 5-FU injection.
Three groups of animals were gavaged daily with 25, 50 or 100 mg/kg/day body weight Robinia pseudoacacia lectin (RPA) for three days and then injected with 150 mg/kg 5-FU on the following day. The remaining group of animals were pre-dosed with 100 mg/kg body weight RPA and then returned to lactalbumin containing diet without injection of 5-FU. After injection with 5-FU, the animals were returned to lactalbumin containing diet ad lib. The animals were sacrificed 7 days after the start of the experiment, the carcass dissected and the small intestine, jejunum and ileum wet weights recorded.

The test system is the same in data set [2]. Put plainly: Protection of rats from high-dose 5-FU by oral pre-dosing with A4 or B4 homotetramer lectin: gut dry weights and visual inspection. The data set is classed as in vivo, Hooded Lister (Rowett Strain) rats. On the procedure: as §1, §2, §3, §4
Five groups, each consisting of 5 rats were fed on a standard diet containing lactalbumin (Table 1) and were fed on the following dietary regime (Table 4); Table 4.
One group of animals (Treatment 1) were fed standard diet throughout. The second group were gavaged daily with saline for three days and then injected with 5-FU at 150 mg/kg body weight (Treatment 2). The remaining two groups (Treatment 3 & 4) of animals were gavaged daily for three days with either A4 or B4 RPA homotetramer for three days and then injected with 150 mg/kg body weight 5-FU. After injection with 5-FU, Treatment groups 2-4 were returned to standard diet for four days ad lib. The animals were sacrificed 7 days after the start of the experiment, the carcass dissected and the small intestine, jejunum and ileum dry weights recorded.
Dry weights normalised to 100g dry body weight.

The mark [3] stands for this setting: wet weight, lactalbumin diet 3d, 5-FU 150 mg/kg i.p., no RPA.
[4] abbreviates: dry weight normalised to 100g dry body weight, saline gavage 3d, 5-FU 150 mg/kg, no lectin.

Data on one compound can be found in patent publication EP1009418B1, “ROBINIA PSEUDOACACIA LECTIN AND ITS USES” (priority 1997, dated 1999).

Consider `O=c1[nH]cc(F)c(=O)[nH]1` [5-FU, 5-fluorouracil], for which the “Visual inspection of the small intestine, jejunum and ileum” value in data set [1] (5-FU alone (treatment 1)) is given as “no, or a very thin mucosal layer”. Moreover, in data set [1] (setting [3]), the “Ileum” value was 1.0 g, the “Jejunum” value is recorded as 1.0 g and the “Small intestine” value was 5.62 g. In data set [2] (5-FU 150 mg/kg (treatments 1 & 2)), the “tissue dry weight versus the untreated control” value is “significant reduction in tissue dry weight”. In data set [2] (5-FU alone), the “Visual inspection of the small intestine, jejunum and ileum” value was “extensively damaged mucosal”. Moreover, in data set [2] (setting [4]), the “Ileum” value was 405 mg, the “Jejunum” value worked out at 336 mg and the “Small intestine” value is given as 1789 mg.
